Assay results from publication PMC12516390 (ACS Medicinal Chemistry Letters, 2025).
pIC50: −log10 of the molar value. Read-outs that look alike come from different tables or passages of the source.

Columns and labels:
[1] = target: PL^Pro (Severe acute respiratory syndrome coronavirus 2, UniProt P0DTD1); assay: SARS-CoV-2 PLpro screening (Ac-LRGG-ACC substrate); format: biochemical; details: read-out: PL^Pro (%inh)@10μM
[2] = target: recombinant M^Pro (Severe acute respiratory syndrome coronavirus 2, UniProt P0DTD1); assay: SARS-CoV-2 Mpro screening and IC50 determination (QS1 fluorogenic substrate, Drag assay); format: biochemical; details: for inhibition at 10 µM: read-out: M^Pro (%inh)@10μM; for pIC50: read-out: M^Pro IC50
[3] = in vitro; details: African monkey
[4] = recombinant M^Pro, 20 μM QS1 (Ac-Abu-Tle-Leu-Gln-ACC) substrate, Table 1
[5] = M^Pro IC50 (μM), recombinant M^Pro, 20 μM QS1 substrate, Table 3
[6] = recombinant M^Pro, 20 μM QS1 substrate, Table 3
[7] = recombinant M^Pro, 20 μM QS1 substrate, Table 5, read-out: IC50 (μM) M^Pro

Structure (SMILES)	inhibition at 10 µM [1] [%]	inhibition at 10 µM [2] [%]	pIC50 [2, 4]	also measured
CC(C)C[C@H](NC(=O)c1ccc(-c2ccc(Cl)cc2)cc1)C(=O)N[C@H](C#N)C[C@@H]1CCNC1=O [6a]	< 50	> 95	6.14	activity / biochemical potency against M^Pro (in words) [2]: submicromolar
CC(C)C[C@H](NC(=O)c1ccc(-c2ccc(F)cc2)cc1)C(=O)N[C@H](C#N)C[C@@H]1CCNC1=O [6b]	< 50	> 95	6.07	activity / biochemical potency against M^Pro (in words) [2]: submicromolar
CCOc1ccc(-c2ccc(C(=O)N[C@@H](CC(C)C)C(=O)N[C@H](C#N)C[C@@H]3CCNC3=O)cc2)cc1 [6c]	< 50	> 95	6.12	
COc1ccc(-c2ccc(C(=O)N[C@@H](CC(C)C)C(=O)N[C@H](C#N)C[C@@H]3CCNC3=O)cc2)cc1 [6d]	< 50	> 95	6.13	
COc1ccccc1-c1ccc(C(=O)N[C@@H](CC(C)C)C(=O)N[C@H](C#N)C[C@@H]2CCNC2=O)cc1 [6g]	< 50	> 95	5.96	pIC50 [2]: < 6.00
CC(C)C[C@H](NC(=O)c1ccc(-c2cncc(Cl)c2)cc1)C(=O)N[C@H](C#N)C[C@@H]1CCNC1=O [6h]	< 50	> 95	5.89	pIC50 [2]: < 6.00
CCOc1cccc(-c2ccc(C(=O)N[C@@H](CC(C)C)C(=O)N[C@H](C#N)C[C@@H]3CCNC3=O)cc2)c1 [6i]	< 50	> 95	6.10	
COc1ccc(-c2ccc(C(=O)N[C@@H](CC(C)C)C(=O)N[C@H](C#N)C[C@@H]3CCNC3=O)cc2)cn1 [6k]	< 50	> 95	5.92	pIC50 [2]: < 6.00
CCOc1ccc(-c2ccc(C(=O)N[C@@H](CC(C)C)C(=O)N[C@H](C#N)C[C@@H]3CCNC3=O)cc2)cc1F [6m]	< 50	> 95	6.14	
CC(C)C[C@H](NC(=O)c1ccc(-c2ccc3cnn(C)c3c2)cc1)C(=O)N[C@H](C#N)C[C@@H]1CCNC1=O [6n]	< 50	> 95	6.19	
CC(C)C[C@@H](NC(=O)c1ccc(Br)cc1)C(=O)N[C@H](C#N)C[C@@H]1CCNC1=O [11b]	< 50	< 95		
CCCC(NC(=O)c1ccc(Br)cc1)C(=O)NC(C#N)CC1CCNC1=O (stereo not drawn) [11c]	< 50	< 95		
N#CC(CC1CCNC1=O)NC(=O)C(CC1CCCCC1)NC(=O)c1ccc(Br)cc1 (stereo not drawn) [11d]	< 50	< 95		
N#C[C@H](C[C@@H]1CCNC1=O)NC(=O)C1(NC(=O)c2ccc(Br)cc2)CCCCC1 [11e]	< 50	> 95		
CC(C)C[C@@H](NC(=O)c1ccc(-c2ccc(Cl)cc2)cc1)C(=O)N[C@H](C#N)C[C@@H]1CCNC1=O [12a]	< 50	> 95	5.49	
CC(C)C[C@@H](NC(=O)c1ccc(-c2ccc(F)cc2)cc1)C(=O)N[C@H](C#N)C[C@@H]1CCNC1=O [12b]	< 50	> 95	5.39	
CC(C)C[C@@H](NC(=O)c1ccc(-c2ccc(F)nc2)cc1)C(=O)N[C@H](C#N)C[C@@H]1CCNC1=O [12c]	< 50	> 95	5.23	
CCC[C@H](NC(=O)c1ccc(-c2ccccc2OC)cc1)C(=O)N[C@H](C#N)C[C@@H]1CCNC1=O [12d]	< 50	< 95		
CCC[C@H](NC(=O)c1ccc(-c2cccc(OC)c2)cc1)C(=O)N[C@H](C#N)C[C@@H]1CCNC1=O [12e]	< 50	> 95	5.31	
CCC[C@H](NC(=O)c1ccc(-c2ccc(OC)cc2)cc1)C(=O)N[C@H](C#N)C[C@@H]1CCNC1=O [12f]	< 50	> 95	5.26	
CCC[C@H](NC(=O)c1ccc(-c2ccc(OC)c(OC)c2)cc1)C(=O)N[C@H](C#N)C[C@@H]1CCNC1=O [12g]	< 50	> 95	5.02	
CCC[C@H](NC(=O)c1ccc(-c2cncc(Cl)c2)cc1)C(=O)N[C@H](C#N)C[C@@H]1CCNC1=O [12h]	< 50	> 95	5.05	
CCC[C@H](NC(=O)c1ccc(-c2cccc(OCC)c2)cc1)C(=O)N[C@H](C#N)C[C@@H]1CCNC1=O [12i]	< 50	> 95	5.31	
CCC[C@H](NC(=O)c1ccc(-c2ccc(OC)nc2)cc1)C(=O)N[C@H](C#N)C[C@@H]1CCNC1=O [12j]	< 50	< 95		
COc1ccc(-c2ccc(C(=O)N[C@@H](CC3CCCCC3)C(=O)N[C@H](C#N)C[C@@H]3CCNC3=O)cc2)cc1OC [12m]	< 50	< 95	5.68	
Cn1cc2c(-c3ccc(C(=O)N[C@@H](CC4CCCCC4)C(=O)N[C@H](C#N)C[C@@H]4CCNC4=O)cc3)cccc2n1 [12n]	< 50	< 95	5.89	

Structure (SMILES)	inhibition at 10 µM [1] [%]	inhibition at 10 µM [2] [%]	pIC50 [2, 4]	also measured
N#C[C@H](C[C@@H]1CCNC1=O)NC(=O)[C@H](CC1CCCCC1)NC(=O)c1ccc(-c2cncc(Cl)c2)cc1 [12o]	< 50	< 95	5.62	
COc1ccc(-c2ccc(C(=O)NC3(C(=O)N[C@H](C#N)C[C@@H]4CCNC4=O)CCCCC3)cc2)cc1 [12p]	< 50	> 95		
CC(C)C[C@H](NC(=O)c1ccc(-c2ccc3c(cnn3C)c2)cc1F)C(=O)N[C@H](C#N)C[C@@H]1CCNC1=O [18c]				CC50 [3]: > 100000 nM; IC50 [2, 5]: 0.307 µM
COc1cccc(-c2ccc(C(=O)N[C@@H](CC(C)C)C(=O)N[C@H](C#N)C[C@@H]3CCNC3=O)c(F)c2F)c1 [18d]				pIC50 [2, 6]: 6.77
COc1ccc(-c2ccc(C(=O)N[C@@H](CC(C)C)C(=O)N[C@H](C#N)C[C@@H]3CCNC3=O)c(F)c2F)cc1 [18e]				pIC50 [2, 6]: 6.81
COc1cccc(-c2cc(F)c(C(=O)N[C@@H](CC(C)C)C(=O)N[C@H](C#N)C[C@@H]3CCNC3=O)cc2F)c1 [18f]				pIC50 [2, 6]: 6.61
COc1ccc(-c2cc(F)c(C(=O)N[C@@H](CC(C)C)C(=O)N[C@H](C#N)C[C@@H]3CCNC3=O)cc2F)cc1 [18g]				pIC50 [2, 6]: 6.64
COc1cccc(-c2ccc(C(=O)N[C@@H](CC(C)C)C(=O)N[C@H](C#N)C[C@@H]3CCNC3=O)cc2F)c1 [18h]				pIC50 [2, 6]: 6.16
COc1ccc(-c2ccc(C(=O)N[C@@H](CC(C)C)C(=O)N[C@H](C#N)C[C@@H]3CCNC3=O)cc2F)cc1 [18i]				pIC50 [2, 6]: 6.18
COc1cccc(-c2ccc(C(=O)N[C@@H](CC(C)C)C(=O)N[C@H](C#N)C[C@@H]3CCNC3=O)c(C)c2)c1 [18j]				pIC50 [2, 6]: 6.79
COc1ccc(-c2ccc(C(=O)N[C@@H](CC(C)C)C(=O)N[C@H](C#N)C[C@@H]3CCNC3=O)c(C)c2)cc1 [18k]				CC50 [3]: > 100000 nM; IC50 [2, 5]: 0.085 µM
COc1cccc(-c2ccc(C(=O)N[C@@H](CC(C)C)C(=O)N[C@H](C#N)C[C@@H]3CCNC3=O)c(C(F)(F)F)c2)c1 [18l]				pIC50 [2, 6]: 6.94
COc1ccc(-c2ccc(C(=O)N[C@@H](CC(C)C)C(=O)N[C@H](C#N)C[C@@H]3CCNC3=O)c(C(F)(F)F)c2)cc1 [18m]				CC50 [3]: 70600 nM; IC50 [2, 5]: 0.096 µM
CC(C)C[C@H](NC(=O)c1ccc(-c2ccc3c(cnn3C)c2)cc1Cl)C(=O)N[C@H](C#N)C[C@@H]1CCNC1=O [18o]				CC50 [3]: 83500 nM; IC50 [2, 5]: 0.052 µM
CC(C)C[C@H](NC(=O)c1ccc(-c2cccc3nn(C)cc23)cc1Cl)C(=O)N[C@H](C#N)C[C@@H]1CCNC1=O [18p]				CC50 [3]: > 100000 nM; IC50 [2, 5]: 0.068 µM
CC(C)C[C@H](NC(=O)c1ccc(-c2ccc3cnn(C)c3c2)cc1Cl)C(=O)N[C@H](C#N)C[C@@H]1CCNC1=O [18q]				CC50 [3]: 77400 nM; IC50 [2, 5]: 0.053 µM
COc1cccc(-c2ccc(C(=O)N3C[C@H]4[C@@H]([C@H]3C(=O)N[C@H](C#N)C[C@@H]3CCNC3=O)C4(C)C)cc2)c1 [22a]				IC50 [2, 7]: 1.02 µM
COc1ccc(-c2ccc(C(=O)N3C[C@H]4[C@@H]([C@H]3C(=O)N[C@H](C#N)C[C@@H]3CCNC3=O)C4(C)C)cc2)cc1 [22b]				IC50 [2, 7]: 1.13 µM
COc1cccc(-c2ccc(C(=O)N3C[C@H]4[C@@H]([C@H]3C(=O)N[C@H](C#N)C[C@@H]3CCNC3=O)C4(C)C)c(F)c2)c1 [22c]				IC50 [2, 7]: 0.465 µM
COc1ccc(-c2ccc(C(=O)N3C[C@H]4[C@@H]([C@H]3C(=O)N[C@H](C#N)C[C@@H]3CCNC3=O)C4(C)C)c(F)c2)cc1 [22d]				IC50 [2, 7]: 0.394 µM
COc1cccc(-c2ccc(C(=O)N3C[C@@H]4CCC[C@@H]4[C@H]3C(=O)N[C@H](C#N)C[C@@H]3CCNC3=O)cc2)c1 [22g]				IC50 [2, 7]: 2.67 µM
COc1ccc(-c2ccc(C(=O)N3C[C@@H]4CCC[C@@H]4[C@H]3C(=O)N[C@H](C#N)C[C@@H]3CCNC3=O)cc2)cc1 [22h]				IC50 [2, 7]: 2.99 µM
COc1cccc(-c2ccc(C(=O)N3C[C@@H]4CCC[C@@H]4[C@H]3C(=O)N[C@H](C#N)C[C@@H]3CCNC3=O)c(F)c2)c1 [22i]				IC50 [2, 7]: 1.91 µM
COc1ccc(-c2ccc(C(=O)N3C[C@@H]4CCC[C@@H]4[C@H]3C(=O)N[C@H](C#N)C[C@@H]3CCNC3=O)c(F)c2)cc1 [22j]				IC50 [2, 7]: 1.27 µM
CC(C)(C)[C@H](NC(=O)C(F)(F)F)C(=O)N1C[C@H]2[C@@H]([C@H]1C(=O)N[C@H](C#N)C[C@@H]1CCNC1=O)C2(C)C [nirmatrelvir, reference compound]				CC50 [3]: > 100000 nM
